Laboratory results as given in paper PMC12752627, “Discovery of a Potent and Selective TEAD Degrader with Durable Degradation Activity” (Advanced Science, 2025).

Assays:
Assay type in all cases: cell-based
IKZF1-3, GSPT1 = experiment: HiBiT off-target assessment (IMiD substrates); details: HiBiT-tagged cell lines, 6 h
Description: HiBiT cells were inoculated into 96‐well flat‐bottomed tissue culture plates at a density of 50 000 cells per well, followed by adding degraders into the wells using the I‐DOT dispenser. After 6 h of incubation, the cells were lysed and assayed for degradation using the Nano‐Glo HiBiT Lysis Assay System (Promega, #N3030). Luminescence signals were read using an Envision plate reader (Revvity) and the data were analyzed using GraphPad Prism 9.5 software.

[1] = test system: MSTO-211H CRBN knockout cells; experiment: Cell viability assay, CRBN-knockout MSTO-211H; details: Homo sapiens, Figure 3D, read-out: MSTO-211H: CRBN KO IC50
Description: Cells were seeded at a density of 1000 cells per well in 96‐well flat‐bottomed cell culture plates and cultured overnight at 37 °C with 5% CO2 to allow for cell attachment. The following day, different concentrations of compounds were added using an I‐DOT dispenser. After 72 h, 25 µL of CellTiter‐Meiluncell Luminescent Cell Viability Reagent (Meilunbio, #PWL111‐2) was added and incubated for 15 min at room temperature. Luminescence signals were then measured using an Envision plate reader (Revvity). Data were analyzed using GraphPad Prism 9.5 software.^[ [30] ^]

867 cancer cell lines = experiment: PRISM assay (barcoded cell line screening, 5 days); set-up: KG-FP-003-AUC: scale not given here;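 also: top test concentration 10 mM in eight-point dilution series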
Description: The principle of the PRISM assay has been described elsewhere and was conducted as previously outlined by the PRISM team at the Broad Institute.^[ [14], [31] ^] In PRISM (MTS027) experiments, KG‐FP‐003 was tested across 867 different cancer cell lines. Cells were treated with eight concentration gradients, ranging from 4.6 nM to […], in triplicate dilutions over a period of five days. Each plate was treated with 20 µM bortezomib as a positive control and DMSO as a negative control. Three replicate experiments were performed for each compound. The resulting data were analyzed using GraphPad PRISM 9.5.

Compound: CNC(=O)c1cc2c(c(F)c1-c1c(Cl)c(F)cc3c1C[C@@](CN[C@H]1CC[C@H](C(=O)N4CCC(CC5CCN(C(=O)COc6ccc(N7CCC(=O)NC7=O)c(C)c6)CC5)CC4)CC1)(c1ccccc1)O3)[C@@H](O)[C@@H](C)C2 [KG-FP-003]
- Off-target degradation of IMiD substrates IKZF1-3 and GSPT1 (IKZF1-3, GSPT1): no off‐target degradation was detected
- IC50 [1]: 543 ± 50 nM
- KG-FP-003-AUC (867 cancer cell lines; 42MGBA_CENTRAL_NERVOUS_SYSTEM ACH-000323 PR500): 0.75
- KG-FP-003-AUC (867 cancer cell lines; 639V_URINARY_TRACT ACH-000973 PR500): 0.67
- KG-FP-003-AUC (867 cancer cell lines; 647V_URINARY_TRACT ACH-000896 PR500): 0.66
- KG-FP-003-AUC (867 cancer cell lines; 697_HAEMATOPOIETIC_AND_LYMPHOID_TISSUE ACH-000070 PR300): 0.90
- KG-FP-003-AUC (867 cancer cell lines; 769P_KIDNEY ACH-000411 PR500): 0.78
- KG-FP-003-AUC (867 cancer cell lines; 786O_KIDNEY ACH-000649 PR500): 0.96
- KG-FP-003-AUC (867 cancer cell lines; 5637_URINARY_TRACT ACH-000905 PR500): 0.63
- KG-FP-003-AUC (867 cancer cell lines; 8305C_THYROID ACH-001306 PR500): 0.73
- KG-FP-003-AUC (867 cancer cell lines; 8505C_THYROID ACH-001307 PR500): 0.68
- KG-FP-003-AUC (867 cancer cell lines; CBAGPN_BONE ACH-001022 PR300): 0.91
- KG-FP-003-AUC (867 cancer cell lines; CCFSTTG1_CENTRAL_NERVOUS_SYSTEM ACH-000329 PR500): 1.00
- KG-FP-003-AUC (867 cancer cell lines; CCK81_LARGE_INTESTINE ACH-000963 PR300): 1.00
- KG-FP-003-AUC (867 cancer cell lines; CCLFPEDS0003T_SOFT_TISSUE ACH-001164 PR300): 1.00
- KG-FP-003-AUC (867 cancer cell lines; CCLP1_BILIARY_TRACT ACH-001959 PR300): 0.63
- KG-FP-003-AUC (867 cancer cell lines; CCSW1_BILIARY_TRACT ACH-001960 PR300): 0.99
- KG-FP-003-AUC (867 cancer cell lines; CFPAC1_PANCREAS ACH-000138 PR500): 0.95
- KG-FP-003-AUC (867 cancer cell lines; CH157MN_CENTRAL_NERVOUS_SYSTEM ACH-000025 PR300): 0.77
- KG-FP-003-AUC (867 cancer cell lines; CHAGOK1_LUNG ACH-000867 PR300): 0.78
- KG-FP-003-AUC (867 cancer cell lines; CHL1_SKIN ACH-001024 PR500): 1.00
- KG-FP-003-AUC (867 cancer cell lines; CHLA06ATRT_SOFT_TISSUE ACH-001028 PR300): 0.99
- KG-FP-003-AUC (867 cancer cell lines; CHLA10_BONE ACH-001029 PR300): 0.99
- KG-FP-003-AUC (867 cancer cell lines; CHLA15_AUTONOMIC_GANGLIA ACH-001300 PR300): 0.98
- KG-FP-003-AUC (867 cancer cell lines; CHLA57_BONE ACH-001033 PR300): 0.75
- KG-FP-003-AUC (867 cancer cell lines; CHLA200_CENTRAL_NERVOUS_SYSTEM ACH-001293 PR300): 0.99
- KG-FP-003-AUC (867 cancer cell lines; CJM_SKIN ACH-000458 PR500): 0.54
- KG-FP-003-AUC (867 cancer cell lines; CL11_LARGE_INTESTINE ACH-000249 PR300): 1.00
- KG-FP-003-AUC (867 cancer cell lines; CL34_LARGE_INTESTINE ACH-000895 PR500): 0.99
- KG-FP-003-AUC (867 cancer cell lines; CMLT1_HAEMATOPOIETIC_AND_LYMPHOID_TISSUE ACH-000920 PR300): 0.82
- KG-FP-003-AUC (867 cancer cell lines; COGAR359_SOFT_TISSUE ACH-001289 PR300): 0.62
- KG-FP-003-AUC (867 cancer cell lines; COGE352_BONE ACH-001038 PR300): 0.85
- KG-FP-003-AUC (867 cancer cell lines; COGN278_AUTONOMIC_GANGLIA ACH-001301 PR300): 1.00
- KG-FP-003-AUC (867 cancer cell lines; COLO320_LARGE_INTESTINE ACH-000202 PR300): 0.97
- KG-FP-003-AUC (867 cancer cell lines; COLO668_LUNG ACH-000803 PR500): 1.00
- KG-FP-003-AUC (867 cancer cell lines; COLO679_SKIN ACH-000805 PR500): 0.97
- KG-FP-003-AUC (867 cancer cell lines; COLO680N_OESOPHAGUS ACH-000717 PR500): 0.91
- KG-FP-003-AUC (867 cancer cell lines; COLO741_SKIN ACH-000582 PR500): 1.00
- KG-FP-003-AUC (867 cancer cell lines; COLO783_SKIN ACH-000812 PR500): 0.85
- KG-FP-003-AUC (867 cancer cell lines; COLO792_SKIN ACH-000968 PR500): 0.98
- KG-FP-003-AUC (867 cancer cell lines; COLO800_SKIN ACH-000401 PR500): 0.99
- KG-FP-003-AUC (867 cancer cell lines; CORL23_LUNG ACH-000662 PR500): 0.99
- KG-FP-003-AUC (867 cancer cell lines; CORL88_LUNG ACH-000508 PR300): 0.94
- KG-FP-003-AUC (867 cancer cell lines; CORL105_LUNG ACH-000161 PR500): 0.95
- KG-FP-003-AUC (867 cancer cell lines; CORL279_LUNG ACH-000257 PR300): 0.80
- KG-FP-003-AUC (867 cancer cell lines; COV318_OVARY ACH-000256 PR300): 0.82
- KG-FP-003-AUC (867 cancer cell lines; COV362_OVARY ACH-000278 PR500): 0.94
- KG-FP-003-AUC (867 cancer cell lines; COV434_OVARY ACH-000123 PR500): 0.90
- KG-FP-003-AUC (867 cancer cell lines; COV644_OVARY ACH-000608 PR300): 0.68
- KG-FP-003-AUC (867 cancer cell lines; CW2_LARGE_INTESTINE ACH-000998 PR300): 1.00
- KG-FP-003-AUC (867 cancer cell lines; CW9019_SOFT_TISSUE ACH-001050 PR300): 0.68
- PRISM AUC (867 cancer cell lines; Cell line: A172, 5 days): 0.43
- PRISM AUC (867 cancer cell lines; Cell line: ES2, 5 days): 0.62
